The results in this text go back to ChEMBL document CHEMBL3217630, “Intramolecular hydrogen bonding to improve membrane permeability and absorption in beyond rule of five chemical space” (Medchemcomm, 2011).

One data set deals with Rattus norvegicus. Kind of data set: (§1) Oral bioavailability in rat. As to conditions: in vivo. Type of data set: ADME, organism-based.
Data set [1] in a line: Apparent permeability across apical to basolateral side of MDCK cells. Particulars: dog. Type of data set: ADME, cell-based, Canis lupus familiaris.
Data set [2] can be described thus: Fraction of the dose absorbed in rat. Type of data set: ADME, organism-based. As to conditions: in vivo, read-out: Fabs.
A short description of data set [3]: Oral bioavailability in human. The data set is classed as ADME, organism-based. Particulars: in vivo.
Data set [4] in a line: as §1. The data set is classed as ADME, organism-based. As to conditions: in vivo.

The compound `COCCCOc1cc(C[C@@H](C[C@H](N)[C@@H](O)C[C@H](C(=O)NCC(C)(C)C(N)=O)C(C)C)C(C)C)ccc1OC` registered a F with Rattus norvegicus of 0.1%. Moreover, the Papp A→B in data set [1] was determined as 10 nm/s. Moreover, the Fa in data set [2] was determined as 0.5%. The bioavailability in data set [3] was found to be 3%.
Regarding `COC(=O)N[C@H](C(=O)N[C@@H](Cc1ccccc1)[C@@H](O)CN(Cc1ccc(-c2ccccn2)cc1)NC(=O)[C@@H](NC(=O)OC)C(C)(C)C)C(C)(C)C` [ATAZANAVIR], the bioavailability in data set [4] was 10%; in data set [3] it was 60%. The Papp A→B in data set [1] turned out to be 350 nm/s. In addition, the Fa in data set [2] was 54%.
